Assay results published in ChEMBL document CHEMBL6103537 (J Med Chem, 2025).
Activity calls are given as the source filed them. The calls are words filed in the database; no cut-off is given here.

Experiments:
[1] = target: T1, Protein cereblon/Signal transducer and activator of transcription 6 (Homo sapiens, UniProt P42226+Q96SW2); assay: PROTAC activity at STAT6 at Y641 residue/CRBN in human L-1236 cells assessed as reduction in STAT6 level at 10 uM incubated for 24 hrs by Western blot analysis; format: cell-based
[2] = Stability in dog plasma assessed as parent compound remaining measured at 120 mins by LC-MS/MS analysis; format: ADME, cell-free, Canis lupus familiaris; conditions: read-out: Stability
[3] = Metabolic stability in rat liver microsome assessed as parent compound remaining measured at 15 mins in presence of NADPH by LC-MS/MS analysis; format: ADME; conditions: liver microsomes, read-out: Stability
[4] = target: T2, Protein cereblon/Signal transducer and activator of transcription 1-alpha/beta (Homo sapiens) (UniProt P42224+Q96SW2); assay: PROTAC activity at STAT1/CRBN in human MV4-11 cells assessed as reduction in STAT1 level at upto 10 uM incubated for 12 hrs by Western blot analysis; format: cell-based
[5] = Stability in mouse plasma assessed as half life measured upto 60 mins by LC-MS/MS analysis; format: ADME, cell-free
[6] = Stability in monkey plasma assessed as parent compound remaining measured at 30 mins by LC-MS/MS analysis; format: ADME, cell-free, Macaca mulatta; conditions: rhesus monkey, read-out: Stability
[7] = Stability in dog plasma assessed as parent compound remaining measured at 5 mins by LC-MS/MS analysis; format: ADME, cell-free, Canis lupus familiaris; conditions: read-out: Stability
[8] = tested on: PBMC; assay: Downregulation of STAT4 level in human PBMC cells at 5 uM incubated for 18 hrs by Western blot analysis relative to control; format: functional, cell-based
[9] = Stability in dog plasma assessed as parent compound remaining measured at 60 mins by LC-MS/MS analysis; format: ADME, cell-free, Canis lupus familiaris; conditions: read-out: Stability
[10] = Stability in human plasma assessed as parent compound remaining measured at 5 mins by LC-MS/MS analysis; format: ADME, cell-free; conditions: read-out: Stability
[11] = Metabolic stability in human liver microsome assessed as parent compound remaining measured at 30 mins in presence of NADPH by LC-MS/MS analysis; format: ADME; conditions: liver microsomes, read-out: Stability
[12] = target: Cereblon/Ikaros (Homo sapiens) (UniProt Q96SW2+Q13422); assay: PROTAC activity at CRBN/IKZF1 in human Jurkat cells assessed as degradation of IKZF1 protein at 0.01 to 10 uM incubated for 20 hrs by Western blotting analysis; format: cell-based; conditions: dose 0.01-10 µM
[13] = target: T3, Protein cereblon/Signal transducer and transcription activator 6 (Mus musculus) (UniProt P52633+Q8C7D2); assay: In vivo PROTAC activity at STAT6/CRBN in BALB/c mouse assessed as reduction in STAT6 level in liver at 200 mg/kg, ip measured at 2 to 24 hrs by Western blot analysis; format: functional, organism-based; set-up: scale not given: the % may be the effect or the level left; conditions: time 2-24 hrs
[14] = Metabolic stability in monkey liver microsome assessed as half life measured upto 60 mins in presence of NADPH by LC-MS/MS analysis; format: ADME, Macaca mulatta; conditions: rhesus monkey, liver microsomes
[15] = target: T1, Protein cereblon/Signal transducer and activator of transcription 6; assay: PROTAC activity at STAT6 at Y641 residue/CRBN in human L-1236 cells assessed as reduction in STAT6 level incubated for 24 hrs by Western blot analysis; format: cell-based; conditions: dose 10.0 µM
[16] = target: T1, Protein cereblon/Signal transducer and activator of transcription 6; assay: PROTAC activity at STAT6/CRBN in human MV4-11 cells assessed as reduction in STAT6 level at 5 uM incubated for 12 hrs by Western blot analysis relative to control; format: cell-based
[17] = target: T2, Protein cereblon/Signal transducer and activator of transcription 1-alpha/beta (Homo sapiens); assay: PROTAC activity at STAT1/CRBN in human PBMC cells assessed as reduction in STAT1 level at 10 uM incubated for 18 hrs by Western blot analysis relative to control; format: cell-based
[18] = Stability in monkey plasma assessed as parent compound remaining measured at 120 mins by LC-MS/MS analysis; format: ADME, cell-free, Macaca mulatta; conditions: rhesus monkey, read-out: Stability
[19] = Stability in rat plasma assessed as parent compound remaining measured at 30 mins by LC-MS/MS analysis; format: ADME, cell-free; conditions: read-out: Stability
[20] = Stability in human plasma assessed as parent compound remaining measured at 120 mins by LC-MS/MS analysis; format: ADME, cell-free; conditions: read-out: Stability
[21] = Stability in mouse plasma assessed as parent compound remaining measured at 30 mins by LC-MS/MS analysis; format: ADME, cell-free; conditions: read-out: Stability
[22] = Metabolic stability in monkey liver microsome assessed as parent compound remaining measured at 15 mins in presence of NADPH by LC-MS/MS analysis; format: ADME, Macaca mulatta; conditions: rhesus monkey, liver microsomes, read-out: Stability
[23] = target: T1, Protein cereblon/Signal transducer and activator of transcription 6; assay: PROTAC activity at STAT6/CRBN in human L-1236 cells assessed as reduction in STAT6 level at 10 uM incubated for 24 hrs by Western blot analysis; format: cell-based
[24] = target: T3, Protein cereblon/Signal transducer and transcription activator 6 (Mus musculus); assay: In vivo PROTAC activity at STAT6/CRBN in BALB/c mouse assessed as reduction in STAT6 level in lung at 200 mg/kg, ip measured at 6 hrs by Western blot analysis; format: functional, organism-based; set-up: scale not given: the % may be the effect or the level left
[25] = target: T3, Protein cereblon/Signal transducer and transcription activator 6 (Mus musculus); assay: In vivo PROTAC activity at STAT6/CRBN in BALB/c mouse assessed as reduction in STAT6 level in lung at 200 mg/kg, ip measured at 2 hrs by Western blot analysis; format: functional, organism-based; set-up: scale not given: the % may be the effect or the level left
[26] = target: Protein cereblon/Signal transducer and activator of transcription 2 (Homo sapiens) (UniProt Q96SW2+P52630); assay: PROTAC activity at STAT2/CRBN in human PBMC cells assessed as reduction in STAT2 level at 10 uM incubated for 18 hrs by Western blot analysis relative to control; format: cell-based
[27] = target: Protein cereblon/Zinc finger protein Aiolos (Homo sapiens) (UniProt Q96SW2+Q9UKT9); assay: PROTAC activity at CRBN/IKZF3 in human Jurkat cells assessed as degradation of IKZF3 protein at 0.01 to 10 uM incubated for 20 hrs by Western blotting analysis; format: cell-based; conditions: dose 0.01-10 µM
[28] = Metabolic stability in rat liver microsome assessed as parent compound remaining measured at 45 mins in presence of NADPH by LC-MS/MS analysis; format: ADME; conditions: liver microsomes, read-out: Stability
[29] = Downregulation of AKR7A3 level in human PBMC cells at 5 uM incubated for 18 hrs by Western blot analysis relative to control; format: functional
[30] = Stability in monkey plasma assessed as parent compound remaining measured at 5 mins by LC-MS/MS analysis; format: ADME, cell-free, Macaca mulatta; conditions: rhesus monkey, read-out: Stability
[31] = Stability in rat plasma assessed as parent compound remaining measured at 5 mins by LC-MS/MS analysis; format: ADME, cell-free; conditions: read-out: Stability
[32] = Stability in rat plasma assessed as parent compound remaining measured at 15 mins by LC-MS/MS analysis; format: ADME, cell-free; conditions: read-out: Stability
[33] = target: T1, Protein cereblon/Signal transducer and activator of transcription 6; assay: PROTAC activity at STAT6/CRBN in human MV4-11 cells assessed as reduction in STAT6 level at 2 uM measured upto 1200 mins in presence of AK-068 by HiBiT bioluminescence assay; format: cell-based
[34] = Stability in monkey plasma assessed as parent compound remaining measured at 60 mins by LC-MS/MS analysis; format: ADME, cell-free, Macaca mulatta; conditions: rhesus monkey, read-out: Stability
[35] = Downregulation of EPB41L1 level in human PBMC cells at 5 uM incubated for 18 hrs by Western blot analysis relative to control; format: functional
[36] = Stability in human plasma assessed as parent compound remaining measured at 60 mins by LC-MS/MS analysis; format: ADME, cell-free; conditions: read-out: Stability
[37] = Stability in rat plasma assessed as parent compound remaining measured at 120 mins by LC-MS/MS analysis; format: ADME, cell-free; conditions: read-out: Stability
[38] = Stability in dog plasma assessed as half life measured upto 60 mins by LC-MS/MS analysis; format: ADME, cell-free, Canis lupus familiaris

Activity [1]: No effect | remaining at 2 h [2]: 67% | remaining at 0.25 h [3]: 98% | Activity [4]: No effect | half-life [5]: > 2 h | remaining at 0.5 h [6]: 91% | remaining at 5 min [7]: 82% | remaining at 1 h [9]: 69% | remaining at 5 min [10]: 79% | remaining at 0.5 h [11]: 92% | Activity [12]: Active | Activity [13]: > 90% | half-life [14]: 1.05 h | Activity [15]: Dose-dependent-effect | Emax [16]: > 95% | Activity [17]: No effect | remaining at 2 h [18]: 82% | remaining at 0.5 h [19]: 85% | remaining at 2 h [20]: 74% | remaining at 0.5 h [21]: 96% | remaining at 0.25 h [22]: 83% | Activity [23]: No effect | Activity [24]: > 90% | Activity [25]: > 70% | Activity [26]: No effect | Activity [27]: No effect | remaining at 0.75 h [28]: 90% | remaining at 5 min [30]: 82% | remaining at 5 min [31]: 86% | remaining at 0.25 h [32]: 96% | Activity [33]: Active | remaining at 1 h [34]: 81% | remaining at 1 h [36]: 94% | remaining at 2 h [37]: 67% | half-life [38]: > 2 h
Compound: CC(C)(C)[C@H](NC(=O)c1cc2cc(C(F)(F)P(=O)(O)O)ccc2s1)C(=O)N1C[C@@H](OCCCCCC#Cc2cccc3c2CN(C2CCC(=O)NC2=O)C3=O)C[C@H]1C(=O)N1CCO[C@H](c2ccccc2)C1 (stereo partly drawn)
Activity [8]: inactive | Activity [29]: 51% | Activity [35]: 60%
